According to ChEMBL document CHEMBL3132779, “Design, synthesis and biological evaluation of imidazo[1,5-a]pyridinePBD conjugates as potential DNA-directed alkylating agents” (Medchemcomm, 2013):
Calls of active or inactive are those of the source. The rule behind the calls is not given here.

How the values were obtained:
MCF7 [1] = assay: Cell cycle arrest in human MCF7 cells assessed as accumulation at G1 phase at 2 uM after 24 hrs by propidium iodide staining-based flow cytometric analysis (reference value: 56.48%); assay type: functional
DNA = assay: Binding affinity to calf thymus DNA assessed as change in melting temperature at 1:5 drug/DNA ratio at 37 degC after 18 hrs by spectrophotometry; assay type: nucleic-acid assay; settings: Bos taurus
MCF7 [2] = assay: Cell cycle arrest in human MCF7 cells assessed as accumulation at G2/M phase at 4 uM after 24 hrs by propidium iodide staining-based flow cytometric analysis (reference value: 27.93%); assay type: functional
MCF7 [3] = assay: Cell cycle arrest in human MCF7 cells assessed as accumulation at G2/M phase at 2 uM after 24 hrs by propidium iodide staining-based flow cytometric analysis (reference value: 27.93%); assay type: functional
MCF7 [4] = assay: Cell cycle arrest in human MCF7 cells assessed as accumulation at G0 phase at 2 uM after 24 hrs by propidium iodide staining-based flow cytometric analysis (reference value: 3.36%); assay type: functional
MCF7 [5] = assay: Cell cycle arrest in human MCF7 cells assessed as accumulation at G1 phase at 4 uM after 24 hrs by propidium iodide staining-based flow cytometric analysis (reference value: 56.48%); assay type: functional
MCF7 [6] = assay: Cytotoxicity against human MCF7 cells assessed as reduction cell viability after 24 hrs by MTT assay; assay type: functional, cell-based; settings: MCF7, 24 h
MCF7 [7] = assay: Cell cycle arrest in human MCF7 cells assessed as accumulation at G0 phase at 4 uM after 24 hrs by propidium iodide staining-based flow cytometric analysis (reference value: 3.36%); assay type: functional
MCF7 [8] = assay: Cell cycle arrest in human MCF7 cells assessed as accumulation at S phase at 4 uM after 24 hrs by propidium iodide staining-based flow cytometric analysis (reference value: 12.23%); assay type: functional
MCF7 [9] = assay: Cell cycle arrest in human MCF7 cells assessed as accumulation at S phase at 2 uM after 24 hrs by propidium iodide staining-based flow cytometric analysis (reference value: 12.23%); assay type: functional
MCF7 [10] = assay: Induction of apoptosis in human MCF7 cells assessed as decrease in PARP protein expression at 4 uM after 24 hrs by Western blot analysis; assay type: functional, cell-based
MCF7 [11] = assay: Induction of apoptosis in human MCF7 cells assessed as increase in P53 tumor suppressor protein expression at 4 uM after 24 hrs by Western blot analysis; assay type: functional, cell-based
MCF7 [12] = assay: Induction of apoptosis in human MCF7 cells assessed as increase in active caspase 9 at 4 uM after 24 hrs by Western blot analysis; assay type: functional, cell-based
MCF7 [13] = assay: Induction of apoptosis in human MCF7 cells assessed as increase in P21 tumor suppressor protein expression at 4 uM after 24 hrs by Western blot analysis; assay type: functional, cell-based
MCF7 [14] = assay: Induction of apoptosis in human MCF7 cells assessed as increase in P53 tumor suppressor protein expression at 4 uM after 24 hrs by ELISA; assay type: functional, cell-based
MCF7 [15] = assay: Induction of apoptosis in human MCF7 cells assessed as decrease in cyclin D1 expression at 4 uM after 24 hrs by Western blot analysis; assay type: functional, cell-based
MCF7 [16] = assay: Induction of DNA in human MCF7 cells assessed as increase in phosphorylated gamma-H2AX foci formation measured by immunoflourosence microscopy relative to control; assay type: functional

Structure (SMILES) | Activity (MCF7 [1]) [%] | ΔTm (DNA) [°C] | Activity (MCF7 [2]) [%] | Activity (MCF7 [3]) [%] | Activity (MCF7 [4]) [%] | Activity (MCF7 [5]) [%] | IC50 (MCF7 [6]) [µM] | Activity (MCF7 [7]) [%] | Activity (MCF7 [8]) [%] | Activity (MCF7 [9]) [%] | inhibition (MCF7 [10]) | Activity (MCF7 [11]) | Activity (MCF7 [12]) | Activity (MCF7 [13]) | Activity (MCF7 [14]) | inhibition (MCF7 [15]) | Activity (MCF7 [16]) [%]
COc1cc2c(cc1OCCCCCCN1CCN(C(=O)c3nc(-c4ccccc4)n4ccccc34)CC1)N=C[C@@H]1CCCN1C2=O | 43.15 | 8 | 20.15 | 39.25 | 4.08 | 55.54 | 3.74 | 7.79 | 16.52 | 10.52 | – | – | – | – | – | – | –
COc1ccc(-c2nc(C(=O)N3CCN(CCCCOc4cc5c(cc4OC)C(=O)N4CCC[C@H]4C=N5)CC3)c3ccccn23)cc1 | 51.08 | 9.9 | 22.9 | 34.52 | 4.51 | 59.03 | 4.17 | 7.01 | 14.04 | 9.89 | – | – | – | – | – | – | –
COc1ccc(-c2nc(C(=O)N3CCN(CCCOc4cc5c(cc4OC)C(=O)N4CCC[C@H]4C=N5)CC3)c3ccccn23)cc1 | 45.35 | 8.8 | 13.27 | 31.44 | 3.56 | 66.92 | 6 | 6 | 13.81 | 19.65 | – | – | – | – | – | – | –
COc1cc2c(cc1OCCCCCN1CCN(C(=O)c3nc(-c4ccc(C(F)(F)F)cc4)n4ccccc34)CC1)N=C[C@@H]1CCCN1C2=O | 44.41 | 10.2 | 25.32 | 41.41 | 5.7 | 49.66 | 3.16 | 17.13 | 6.9 | 8.48 | Active | Active | Active | Active | Active | Active | 80
COc1cc2c(cc1OCCCCN1CCN(C(=O)c3nc(-c4ccc(C(F)(F)F)cc4)n4ccccc34)CC1)N=C[C@@H]1CCCN1C2=O | 42.94 | 10 | 18.71 | 41.29 | 3.64 | 57.32 | 3.26 | 15.19 | 8.78 | 12.14 | Active | Active | Active | Active | Active | Active | –
COc1cc2c(cc1OCCCCCCN1CCN(C(=O)c3nc(-c4ccc(C(F)(F)F)cc4)n4ccccc34)CC1)N=C[C@@H]1CCCN1C2=O | 52.92 | 8.7 | 30.79 | 34.09 | 3.66 | 52.13 | 4.28 | 7.14 | 9.94 | 9.33 | – | – | – | – | – | – | –
COc1cc2c(cc1OCCCN1CCN(C(=O)c3nc(-c4ccccc4)n4ccccc34)CC1)N=C[C@@H]1CCCN1C2=O | 55.54 | 8.9 | 30.14 | 28.35 | 4.26 | 54.44 | 7.21 | 5.23 | 10.19 | 11.86 | – | – | – | – | – | – | –
COc1cc2c(cc1OCCCCCN1CCN(C(=O)c3nc(-c4ccccc4)n4ccccc34)CC1)N=C[C@@H]1CCCN1C2=O | 49.16 | 9 | 30.74 | 36.5 | 4.49 | 51.6 | 4.16 | 7.6 | 10 | 9.84 | – | – | – | – | – | – | –
COc1ccc(-c2nc(C(=O)N3CCN(CCCCCOc4cc5c(cc4OC)C(=O)N4CCC[C@H]4C=N5)CC3)c3ccccn23)cc1 | 52.76 | 9.9 | 30.3 | 31.61 | 5.57 | 53.22 | 5.67 | 6.07 | 10.42 | 10.06 | – | – | – | – | – | – | –
COc1cc2c(cc1O)N=C[C@@H]1CCCN1C2=O | 53.76 | 0.7 | 26.83 | 27.28 | 2.83 | 54.08 | 5 | 5.33 | 13.76 | 16.13 | – | Active | – | Active | Active | – | –
COc1ccc(-c2nc(C(=O)N3CCN(CCCCCCOc4cc5c(cc4OC)C(=O)N4CCC[C@H]4C=N5)CC3)c3ccccn23)cc1 | 41.06 | 8.9 | 23.56 | 40.53 | 5.39 | 54.67 | 3.68 | 13.33 | 8.44 | 13.2 | – | – | – | – | – | – | –
O=C(c1nc(-c2ccc(C(F)(F)F)cc2)n2ccccc12)N1CCNCC1 | – | 2.5 | – | – | – | – | – | – | – | – | – | – | – | – | – | – | –
COc1cc2c(cc1OCCCCN1CCN(C(=O)c3nc(-c4ccccc4)n4ccccc34)CC1)N=C[C@@H]1CCCN1C2=O | 48.87 | 8.9 | 20.95 | 31.3 | 2.8 | 63.74 | 7.18 | 5.47 | 9.85 | 17.03 | – | – | – | – | – | – | –
O=C(O)c1nc(-c2ccc(C(F)(F)F)cc2)n2ccccc12 | – | 0.3 | – | – | – | – | – | – | – | – | – | – | – | – | – | – | –
COc1cc2c(cc1OCCCN1CCN(C(=O)c3nc(-c4ccc(C(F)(F)F)cc4)n4ccccc34)CC1)N=C[C@@H]1CCCN1C2=O | 52.63 | 8.8 | 14.71 | 32.52 | 4.52 | 69.36 | 5.74 | 6.23 | 9.7 | 10.34 | – | – | – | – | – | – | –
